Test results from publication PMC9182007, “Statistical Methods in the Study of Protein Binding and Its Relationship to Drug Bioavailability in Breast Milk” (Molecules, 2022).
Read-outs that look alike come from different tables or passages of the source.

Columns and labels:
plasma protein = settings: ref DrugBank [7], cited from earlier work
[1] = HPLC on immobilized artificial membrane column (HPLCIAM); assay type: physicochemical; settings: for log k IAM: Table S5, IAM column, pH 7.4; for k IAM: Table S5, retention factor, IAM column, phosphate buffer pH 7.4/acetonitrile 80:20; for kIAM / log kIAM: Table S9, external group
[2] = molecular target: T1, bovine serum albumin (BSA) (Bos taurus, UniProt P02769); assay: RP TLC on plates impregnated with bovine serum albumin; assay type: binding; settings: for RP (Rf, BSA-impregnated RP plate): Table S4, RP plate impregnated with 2 mg/mL BSA, pH 7.4 mobile phase; for RP (Rf value from the RP plate impregnated with 2 mg/mL BSA solution): Table S8, external group
T1 construct: purchased Sigma Aldrich

[3] = molecular target: T1, bovine serum albumin (BSA); assay: NP TLC on plates impregnated with bovine serum albumin; assay type: binding; settings: for NP (Rf, BSA-impregnated NP plate): Table S3, NP plate impregnated with 2 mg/mL BSA, pH 7.4 mobile phase; for NP (Rf value from the NP plate impregnated with 2 mg/mL BSA solution): Table S8, external group
[4] = RP TLC on non-impregnated control plates; assay type: physicochemical; settings: for CRP (Rf, control RP plate): Table S4, non-impregnated RP plate, acetonitrile/acetate buffer pH 7.4/methanol 60:20:20; for CRP (Rf value from the non-impregnated RP plate, control): Table S8, external group
Protocol: (§1) For TLC chromatography, glass plates 20 × 20 cm from Merck, covered with silica gel with the addition of a fluorescent indicator, were used. Normal phase (NP) plates were used with standard Merck TLC Silica gel 60 F254 plates, while in reverse phase (RP) silanized plates RP-2: Merck TLC Silica gel 60 RP-2 F254 were used.
(§2) Normal and reversed phase thin layer chromatography (NP TLC and RP TLC respectively) was performed using silica-gel-coated glass plates. Half of them were covered with 2 mg/mL bovine serum albumin solution and half remained pure.
(§3) The mobility of the compounds was also determined on the plates with no protein as a modifier. […] The acetate buffer (20 mM) was prepared by dissolving 1.54 g of ammonium acetate in 1 L of distilled water. The pH was then adjusted with a concentrated ammonia solution using a pH meter. The plates were developed in standard, vertical chromatographic chambers, each time using 100 mL of the mobile phase, after the chamber was previously saturated with solvent vapors for approximately 1 h.
(§4) The unfolded-protein-impregnated plates and the control plates were scanned with a Desaga CD 60 densitometer. The values of the delay factor (Rf) were collected, i.e., the ratio of the distance traveled by the substance to be analyzed to the distance traveled through the front of the mobile phase. […] The experiment was repeated (for both BSA-coated and control plates) and the Rf values pooled are the mean of both series of experiments.

[5] = Table S1, coded 1/0; ref DrugBank [7]; cited from earlier work
[6] = molecular target: human serum albumin (HSA) (Homo sapiens, UniProt P02768); settings: for k HSA: Table S5, retention factor, HSA column, pH 7.4, 25 degrees Celsius
Protocol: High performance liquid chromatography was performed using immobilized human serum albumin column (HPLCHSA) and immobilized artificial membrane (HPLCIAM). HPLC was the source of the log k values (logarithm of retention factor), log kHSA and log kIAM.
High performance liquid chromatography was performed using a chromatography column with immobilized human serum albumin. The assay was performed on a Perkin Elmer Series 200 instrument connected to a UV-VIS spectrometer as detector. The analytical wavelength was the same for all compounds at 210 nm. […] The acetate buffer was prepared by dissolving 0.77 g of ammonium acetate in 1 L of distilled water. The pH was then adjusted with a concentrated ammonia solution using a pH meter.
The phase flow through the system was set to 0.9 mL/min as recommended by the column manufacturer. The solutions were delivered to the column using an autosampler syringe, the injection size was 10 µL. Since the column could not be thermostated, the room was kept at a constant temperature of 25 degrees Celsius.
Chromatographic data (retention coefficient, k, and derivative, log k) were obtained with TotalChrom software connected to an HPLC instrument. […] The experiment was then repeated and the collected retention rates were the mean values of both series.

[7] = NP TLC on non-impregnated control plates; assay type: physicochemical; settings: for CNP (Rf, control NP plate): Table S3, non-impregnated NP plate, acetonitrile/acetate buffer pH 7.4/methanol 60:20:20; for CNP (Rf value from the non-impregnated NP plate, control): Table S8, external group
Protocol: as §1, §2, §3, §4

[8] = Table S1, plasma protein binding given as fraction
[9] = human, immobilized hsa column, pH 7.4
[10] = Table S6, external group (n = 38), given as fraction

T1 sequence (P02769 25-607): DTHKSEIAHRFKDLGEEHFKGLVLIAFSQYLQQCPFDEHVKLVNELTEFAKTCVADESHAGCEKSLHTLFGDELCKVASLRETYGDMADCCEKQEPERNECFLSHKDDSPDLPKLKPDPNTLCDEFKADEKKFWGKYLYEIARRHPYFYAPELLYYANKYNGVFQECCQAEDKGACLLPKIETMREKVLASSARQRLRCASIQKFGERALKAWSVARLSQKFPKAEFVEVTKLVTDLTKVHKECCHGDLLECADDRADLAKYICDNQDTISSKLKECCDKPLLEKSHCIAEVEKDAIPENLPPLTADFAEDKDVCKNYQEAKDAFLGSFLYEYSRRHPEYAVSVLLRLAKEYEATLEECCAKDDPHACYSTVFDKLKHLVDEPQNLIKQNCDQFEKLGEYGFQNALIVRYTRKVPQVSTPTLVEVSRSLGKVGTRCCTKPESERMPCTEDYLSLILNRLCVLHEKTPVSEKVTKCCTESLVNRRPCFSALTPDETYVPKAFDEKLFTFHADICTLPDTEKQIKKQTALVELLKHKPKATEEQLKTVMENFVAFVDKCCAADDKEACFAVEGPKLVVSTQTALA
Chain of human serum albumin (HSA) (P02768 25-609): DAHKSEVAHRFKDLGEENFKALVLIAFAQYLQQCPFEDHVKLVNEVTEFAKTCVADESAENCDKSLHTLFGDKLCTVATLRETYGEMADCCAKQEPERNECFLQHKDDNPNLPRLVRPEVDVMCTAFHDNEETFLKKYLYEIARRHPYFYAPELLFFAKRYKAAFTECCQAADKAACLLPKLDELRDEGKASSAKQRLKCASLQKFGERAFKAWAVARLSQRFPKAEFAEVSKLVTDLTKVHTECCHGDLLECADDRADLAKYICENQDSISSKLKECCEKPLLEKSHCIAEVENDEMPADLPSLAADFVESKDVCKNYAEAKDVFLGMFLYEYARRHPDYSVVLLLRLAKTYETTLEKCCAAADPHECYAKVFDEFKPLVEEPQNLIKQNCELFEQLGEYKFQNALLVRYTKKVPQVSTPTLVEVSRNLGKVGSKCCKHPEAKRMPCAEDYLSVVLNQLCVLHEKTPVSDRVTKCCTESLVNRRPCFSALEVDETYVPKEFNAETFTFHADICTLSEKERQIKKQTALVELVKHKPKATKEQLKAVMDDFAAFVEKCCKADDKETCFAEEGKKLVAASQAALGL

| Structure (SMILES) | PB (plasma protein; [8]) | log k IAM [1] | k IAM [1] | RP (Rf, BSA-impregnated RP plate) [2] | NP (Rf, BSA-impregnated NP plate) [3] | CRP (Rf, control RP plate) [4] | k HSA [6] | CNP (Rf, control NP plate) [7] | log k HSA ([6]; Table S5, HSA, pH 7.4) | further results |
| --- | --- | --- | --- | --- | --- | --- | --- | --- | --- | --- |
| CC(C)NCC(O)COc1ccc(COCCOC(C)C)cc1 (stereo not drawn) [bisoprolol] | 0.3 | 0.83 | 6.74 | 0.56 | 0.66 | 0.57 | 1.07 | 0.67 |  | CNS+/- [5]: 0 |
| CC[C@H]1OC(=O)[C@H](C)[C@@H](O[C@H]2C[C@@](C)(OC)[C@@H](O)[C@H](C)O2)[C@H](C)[C@@H](O[C@@H]2O[C@H](C)C[C@H](N(C)C)[C@H]2O)[C@](C)(O)C[C@@H](C)/C(=N\OCOCCOC)[C@H](C)[C@@H](O)[C@]1(C)O [roxitromicin] | 0.96 |  |  | 0.79 | 0.92 | 0.80 | 1.03 | 0.91 | 0.01 |  |
| CCC1(c2ccccc2)C(=O)NCNC1=O [primidone] |  |  |  |  |  |  |  |  |  | kIAM [1]: 2.02; log kIAM [1]: 0.31; RP (Rf value from the RP plate impregnated with 2 mg/mL BSA solution) [2]: 0.97; NP (Rf value from the NP plate impregnated with 2 mg/mL BSA solution) [3]: 0.93; CRP (Rf value from the non-impregnated RP plate, control) [4]: 0.93; kHSA ([6]; Table S9, external group): 0.22; log kHSA ([6]; Table S9, external group): -0.66; CNP (Rf value from the non-impregnated NP plate, control) [7]: 0.90 |
| COc1ccnc(C[S+]([O-])c2nc3ccc(OC(F)F)cc3[nH]2)c1OC (stereo not drawn) [pantoprazole] | 0.98 | 0.34 | 2.19 | 0.83 | 0.92 | 0.85 | 2.09 | 0.93 |  | CNS+/- [5]: 0; log k HSA [6, 9]: 0.32 |
| COc1ccc(CCN2CCC(Nc3nc4ccccc4n3Cc3ccc(F)cc3)CC2)cc1 [astemizol] | 0.967 | 1.42 | 26.27 | 0.62 | 0.61 | 0.65 | 13.32 | 0.62 |  | log k HSA [6, 9]: 1.12 |
| COc1cc(Cc2cnc(N)nc2N)cc(OC)c1OC [trimethoprim] |  |  |  |  |  |  |  |  |  | PB (plasma protein; [10]): 0.44; NP (Rf value from the NP plate impregnated with 2 mg/mL BSA solution) [3]: 0.59; CNP (Rf value from the non-impregnated NP plate, control) [7]: 0.57 |
| CC(CN1c2ccccc2Sc2ccccc21)N(C)C (stereo not drawn) [promethazine] | 0.93 | 1.17 | 14.96 | 0.47 | 0.42 | 0.49 | 5.35 | 0.43 | 0.73 | CNS+/- [5]: 1 |
| CC(C)NCC(O)COc1cccc2ccccc12 (stereo not drawn) [propranolol] |  | 1.45 | 28.09 |  | 0.50 |  |  | 0.54 |  |  |
| C[C@]12CC[C@@H]3c4ccc(OC(=O)c5ccccc5)cc4CC[C@H]3[C@@H]1CC[C@@H]2O [estradiol benzoate] | 0.95 | 0.84 | 6.92 | 0.62 | 0.98 | 0.63 |  | 0.97 |  |  |
| CCCCCOC(=O)Nc1nc(=O)n([C@@H]2O[C@H](C)[C@@H](O)[C@H]2O)cc1F [capecitabine] | 0.6 | 0.04 | 1.11 | 0.89 | 0.92 | 0.90 |  | 0.92 |  |  |
| O=C(N[C@H](CO)[C@H](O)c1ccc([N+](=O)[O-])cc1)C(Cl)Cl [chloramphenikol] |  | 0.03 | 1.08 | 0.89 | 0.97 | 0.89 | 0.61 | 0.99 | -0.21 |  |
| CO[C@H]1/C=C/O[C@@]2(C)Oc3c(C)c(O)c4c(O)c(c(/C=N/N5CCN(C)CC5)c(O)c4c3C2=O)NC(=O)/C(C)=C\C=C\[C@H](C)[C@H](O)[C@@H](C)[C@@H](O)[C@@H](C)[C@H](OC(C)=O)[C@@H]1C [rifampicin] |  |  |  |  |  |  |  |  |  | PB (plasma protein; [10]): 0.89; kIAM [1]: 8.37; log kIAM [1]: 0.92; RP (Rf value from the RP plate impregnated with 2 mg/mL BSA solution) [2]: 0.94; NP (Rf value from the NP plate impregnated with 2 mg/mL BSA solution) [3]: 0.77; CRP (Rf value from the non-impregnated RP plate, control) [4]: 0.95; kHSA ([6]; Table S9, external group): 0.03; log kHSA [6, 9]: -1.53; CNP (Rf value from the non-impregnated NP plate, control) [7]: 0.73 |
| CC(=O)Nc1nnc(S(N)(=O)=O)s1 [acetazolamid] |  |  |  |  |  |  |  |  |  | PB (plasma protein; [10]): 0.98; RP (Rf value from the RP plate impregnated with 2 mg/mL BSA solution) [2]: 0.96; CRP (Rf value from the non-impregnated RP plate, control) [4]: 0.97; kHSA [6]: 0.74; log kHSA [6]: -0.13 |
| CC(=O)[C@H]1CC[C@H]2[C@@H]3CCC4=CC(=O)CC[C@]4(C)[C@H]3CC[C@]12C [progesterone] | 0.975 | 1.54 | 34.99 | 0.68 | 0.96 | 0.71 | 5.7 | 0.96 | 0.76 |  |
| O=C(CCCN1CCC(O)(c2ccc(Cl)cc2)CC1)c1ccc(F)cc1 [haloperidol] | 0.92 | 1.38 | 23.74 | 0.64 | 0.65 | 0.61 | 4.8 | 0.66 | 0.68 |  |
| C[C@]12CC[C@@H]3c4ccc(O)cc4CC[C@H]3[C@@H]1CCC2=O [estrone] | 0.95 | 1.47 | 29.40 |  | 0.99 | 0.79 |  | 0.99 |  |  |
| OC(CCN1CCCCC1)(c1ccccc1)C1CC2C=CC1C2 (stereo not drawn) [biperiden] | 0.6 | 1.62 | 41.47 | 0.85 | 0.65 | 0.87 | 0.58 | 0.68 |  | log k HSA [6, 9]: -0.24 |
| CC(C)(C)NC[C@H](O)COc1nsnc1N1CCOCC1 [timolol] |  |  |  |  |  |  |  |  |  | PB (plasma protein; [10]): 0.10; kIAM [1]: 2.88; log kIAM [1]: 0.46; RP (Rf value from the RP plate impregnated with 2 mg/mL BSA solution) [2]: 0.97; NP (Rf value from the NP plate impregnated with 2 mg/mL BSA solution) [3]: 0.32; CRP (Rf value from the non-impregnated RP plate, control) [4]: 0.97; kHSA ([6]; Table S9, external group): 0.13; CNP (Rf value from the non-impregnated NP plate, control) [7]: 0.34 |
| C=CCN1C[C@H](C(=O)N(CCCN(C)C)C(=O)NCC)C[C@@H]2c3cccc4[nH]cc(c34)C[C@H]21 [carbegoline] | 0.41 | 1.23 | 17.05 | 0.68 | 0.68 | 0.68 | 3.23 | 0.68 | 0.51 |  |
| NS(=O)(=O)c1cc(C2(O)NC(=O)c3ccccc32)ccc1Cl (stereo not drawn) [chlortalidone] | 0.75 | 0.12 | 1.32 |  | 0.96 |  | 0.85 | 0.96 |  |  |
| CCOc1ccc(/C=C2\NCCc3cc(OCC)c(OCC)cc32)cc1OCC [drotaverine] |  | 1.49 | 31.24 | 0.58 | 0.59 | 0.55 | 1.91 | 0.61 |  | CNS+/- [5]: 1; log k HSA [6, 9]: 0.28 |
| CN(C)CCc1c[nH]c2ccc(C[C@H]3COC(=O)N3)cc12 [zolmitriptane] | 0.25 | 0.52 | 3.30 | 0.86 | 0.29 | 0.86 | 1.7 | 0.31 | 0.23 |  |
| CCCc1nc2c(C)cc(-c3nc4ccccc4n3C)cc2n1Cc1ccc(-c2ccccc2C(=O)O)cc1 [telmisartan] | 0.995 | 0.67 | 4.68 | 0.85 | 0.90 | 0.87 |  | 0.90 |  | CNS+/- [5]: 1 |
| CN(C)CCC[C@@]1(c2ccc(F)cc2)OCc2cc(C#N)ccc21 [escitalopram] | 0.56 | 1.51 | 32.08 |  |  | 0.55 |  | 0.42 |  |  |
| CN(C)CCOC(c1ccccc1)c1ccccc1 [diphenhydramin] | 0.985 | 0.56 | 3.66 | 0.54 | 0.33 | 0.58 | 1.88 | 0.42 | 0.27 |  |
